Values of other authors in patent US9109266B2, “Process of producing sugar composition comprising D-psicose and D-allose via strong alkaline isomerization of D-glucose/D-fructose or alkaline pre-treatment of D-glucose/D-fructose followed by isomerization in the presence of a basic ion exchange resin” (MATSUTANI CHEMICAL INDUSTRY CO., LTD., priority 2009, dated 2015).
Read-outs that look alike come from different tables or passages of the source.

Key:
[1] = non-patent reference 10 (report 4)
[2] = for Body fat decrement ratio (%) / Body weight decrement ratio (%) / Feed intake decrement ratio (%): compared with control group; for reduction of blood sugar level / reduction of insulin level: reports 1 and 2
[3] = D-psicose administration; non-patent reference 11
[4] = Report 1, D-psicose at 5% in total solids
[5] = Report 2, D-allose at 3% in total solids

Structure (SMILES)	contribution to body weight [1]	contribution to the amount of feed intake [1]	Body fat decrement ratio (%) [2, 4] [%]	Body weight decrement ratio (%) [2, 4] [%]	Feed intake decrement ratio (%) [2, 4] [%]	reduction of blood sugar level [2]	reduction of insulin level [2]	intra-day variation of insulin level [3]	Body fat decrement ratio (%) [2, 5] [%]	Body weight decrement ratio (%) [2, 5] [%]	Feed intake decrement ratio (%) [2, 5] [%]
O=C[C@@H](O)[C@@H](O)[C@H](O)[C@H](O)CO [D-mannose]	never makes any contribution	never makes any contribution									
O=C(CO)[C@H](O)[C@H](O)[C@H](O)CO [D-psicose]			15	6	6	No significant reduction	No significant reduction	no reduction of insulin level			
O=C[C@H](O)[C@H](O)[C@H](O)[C@H](O)CO [D-allose]						No significant reduction	No significant reduction		19	17	8
